Assay results reported in US10597388B2, “Pyridazinone herbicides” (FMC CORPORATION, priority 2014, dated 2020).

How the values were obtained:
Assay type in all cases: in vivo
[1] = system: kochia (Kochia scoparia); assay: Test A greenhouse herbicide test, pre- and postemergence
Procedure, shortened: (§1)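 Seeds sown in loam–sand blend got a preemergence directed soil spray of compound in non-phytotoxic solvent with surfactant. Postemergence treatment was given at 2–10 cm, one- to two-leaf stage. After ~10 d in greenhouse, injury was rated visually vs untreated controls, 0 (no effect) to 100 (complete control).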

[2] = system: barnyardgrass (Echinochloa crus-galli); assay: as above
Procedure, shortened: as §1

[3] = system: morningglory (Ipomoea coccinea); assay: Test C greenhouse herbicide test, pre- and postemergence
Procedure, shortened: (§2)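 Two application timings: at sowing into a soil/sand blend, and on 2–18 cm seedlings in peat-vermiculite potting mix. A non-phytotoxic, surfactant-containing solvent carried the compounds. Plants were compared with controls and rated visually on 0–100 after 13–15 d.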

[4] = system: johnsongrass (Sorghum halepense); assay: as above
Procedure, shortened: as §2

[5] = system: foxtail, giant (giant foxtail, Setaria faberii); assay: as above
Procedure, shortened: as §2

[6] = system: wheat (winter wheat, Triticum aestivum); assay: as above
Procedure, shortened: as §2

[7] = system: lambsquarters (Chenopodium album); assay: as above
Procedure, shortened: as §2

[8] = system: crabgrass, large (large crabgrass, Digitaria sanguinalis); assay: as above
Procedure, shortened: as §2

[9] = system: oilseed rape (Brassica napus); assay: as above
Procedure, shortened: as §2

[10] = system: waterhemp (common waterhemp, Amaranthus rudis); assay: as above
Procedure, shortened: as §2

[11] = system: corn (Zea mays); assay: as above
Procedure, shortened: as §2

[12] = Postemergence, 125 g ai/ha, 0 to 100 scale where 0 is no effect and 100 is complete control
[13] = Postemergence, 500 g ai/ha, 0 to 100 scale, 0 is no effect, 100 is complete control
[14] = Preemergence, 125 g ai/ha, 0 to 100 scale where 0 is no effect and 100 is complete control
[15] = Preemergence, 500 g ai/ha, 0 to 100 scale, 0 no effect, 100 complete control
[16] = Postemergence, 31 g ai/ha, 0 to 100 scale (0 no effect, 100 complete control)
[17] = Postemergence, 125 g ai/ha, scale 0 to 100, 0 is no effect, 100 is complete control
[18] = Postemergence, 250 g ai/ha, scale 0 to 100, 0 no effect, 100 complete control, 13 to 15 d
[19] = Preemergence, 31 g ai/ha, scale 0 to 100, 0 is no effect, 100 is complete control
[20] = Preemergence, 62 g ai/ha, scale 0 to 100, 0 is no effect, 100 is complete control
[21] = Preemergence, 125 g ai/ha, scale 0 to 100, 0 is no effect, 100 is complete control
[22] = Preemergence, 250 g ai/ha, scale 0 to 100, 0 no effect, 100 complete control
[23] = postemergence, 62 g ai/ha, scale 0 to 100, 0 no effect, 100 complete control

CCc1sc2ccc(C)cc2c1-c1c(O)c(C)nn(C)c1=O [Compound 47]
Plant response rating, Kochia [1, 12]: 90
Kochia plant response rating [1, 13]: 90
Kochia plant response rating [1, 14]: 10
Plant response rating, Kochia [1, 15]: 90
Plant response rating, Barnyardgrass [2, 12]: 40
Barnyardgrass plant response rating [2, 13]: 80
Barnyardgrass plant response rating [2, 14]: 70
Plant response rating, Barnyardgrass [2, 15]: 90
Morningglory plant response rating [3, 16]: 100
Plant response rating, Morningglory [3, 17]: 100
Plant response rating, Morningglory [3, 18]: 100
Plant response rating, Morningglory [3, 19]: 90
Plant response rating, Morningglory [3, 20]: 100
Plant response rating, Morningglory [3, 21]: 100
Morningglory plant response rating [3, 22]: 95
Morningglory plant response rating [3, 23]: 100
Johnsongrass plant response rating [4, 16]: 10
Plant response rating, Johnsongrass [4, 17]: 20
Plant response rating, Johnsongrass [4, 18]: 25
Plant response rating, Johnsongrass [4, 19]: 0
Plant response rating, Johnsongrass [4, 20]: 0
Plant response rating, Johnsongrass [4, 21]: 0
Johnsongrass plant response rating [4, 22]: 0
Johnsongrass plant response rating [4, 23]: 10
Foxtail, Giant plant response rating [5, 16]: 50
Plant response rating, Foxtail, Giant [5, 17]: 75
Plant response rating, Foxtail, Giant [5, 18]: 85
Plant response rating, Foxtail, Giant [5, 19]: 15
Plant response rating, Foxtail, Giant [5, 20]: 50
Plant response rating, Foxtail, Giant [5, 21]: 85
Foxtail, Giant plant response rating [5, 22]: 100
Foxtail, Giant plant response rating [5, 23]: 65
Wheat plant response rating [6, 16]: 0
Plant response rating, Wheat [6, 17]: 0
Plant response rating, Wheat [6, 18]: 0
Plant response rating, Wheat [6, 19]: 0
Plant response rating, Wheat [6, 20]: 0
Plant response rating, Wheat [6, 21]: 0
Wheat plant response rating [6, 22]: 0
Wheat plant response rating [6, 23]: 0
Lambsquarters plant response rating [7, 16]: 85
Plant response rating, Lambsquarters [7, 17]: 98
Plant response rating, Lambsquarters [7, 18]: 85
Plant response rating, Lambsquarters [7, 19]: 100
Plant response rating, Lambsquarters [7, 20]: 100
Plant response rating, Lambsquarters [7, 21]: 100
Lambsquarters plant response rating [7, 22]: 100
Lambsquarters plant response rating [7, 23]: 85
Crabgrass, Large plant response rating [8, 16]: 20
Plant response rating, Crabgrass, Large [8, 17]: 40
Plant response rating, Crabgrass, Large [8, 18]: 35
Plant response rating, Crabgrass, Large [8, 19]: 0
Plant response rating, Crabgrass, Large [8, 20]: 30
Plant response rating, Crabgrass, Large [8, 21]: 60
Crabgrass, Large plant response rating [8, 22]: 95
Crabgrass, Large plant response rating [8, 23]: 30
Oilseed Rape plant response rating [9, 16]: 0
Plant response rating, Oilseed Rape [9, 17]: 5
Plant response rating, Oilseed Rape [9, 18]: 10
Plant response rating, Oilseed Rape [9, 19]: 0
Plant response rating, Oilseed Rape [9, 20]: 0
Plant response rating, Oilseed Rape [9, 21]: 0
Oilseed Rape plant response rating [9, 22]: 10
Oilseed Rape plant response rating [9, 23]: 0
Waterhemp plant response rating [10, 16]: 90
Plant response rating, Waterhemp [10, 17]: 100
Plant response rating, Waterhemp [10, 18]: 100
Plant response rating, Waterhemp [10, 19]: 100
Plant response rating, Waterhemp [10, 20]: 98
Plant response rating, Waterhemp [10, 21]: 100
Waterhemp plant response rating [10, 22]: 100
Waterhemp plant response rating [10, 23]: 75
Corn plant response rating [11, 16]: 0
Plant response rating, Corn [11, 17]: 10
Plant response rating, Corn [11, 18]: 5
Plant response rating, Corn [11, 19]: 0
Plant response rating, Corn [11, 20]: 0
Plant response rating, Corn [11, 21]: 0
Corn plant response rating [11, 22]: 5
Corn plant response rating [11, 23]: 5
